Reference: a compilation of properties of binary mixtures (doi:10.1016/j.jct.2016.09.024)

Assay: xn = mol fraction of the nth substance listed
Conditions: 100 kPa

CCCC[N+](C)(C)C.O=S(=O)([N-]S(=O)(=O)C(F)(F)F)C(F)(F)F + CCO
speed of sound (293.15 K, x1 = 0.01): 1160.4 m/s
speed of sound (293.15 K, x2 = 0): 1239.5 m/s
speed of sound (293.15 K, x2 = 0.0605): 1237.5 m/s
speed of sound (293.15 K, x2 = 0.101): 1235.4 m/s
speed of sound (293.15 K, x2 = 0.3): 1225.3 m/s
speed of sound (293.15 K, x2 = 0.4096): 1218.1 m/s
speed of sound (293.15 K, x2 = 0.4998): 1210.5 m/s
speed of sound (293.15 K, x2 = 0.5996): 1200.8 m/s
speed of sound (293.15 K, x2 = 0.6504): 1195.1 m/s
speed of sound (293.15 K, x2 = 0.8514): 1166.7 m/s
speed of sound (293.15 K, x2 = 0.88): 1163.4 m/s
speed of sound (293.15 K, x2 = 0.92): 1158.1 m/s
speed of sound (293.15 K, x2 = 0.93): 1158 m/s
speed of sound (293.15 K, x2 = 0.94): 1157.5 m/s
speed of sound (293.15 K, x2 = 0.9609): 1157.2 m/s
speed of sound (298.15 K, x2 = 0): 1228.9 m/s
speed of sound (298.15 K, x2 = 0.0605): 1226.8 m/s
speed of sound (298.15 K, x2 = 0.101): 1224.6 m/s
speed of sound (298.15 K, x2 = 0.1991): 1220.2 m/s
speed of sound (298.15 K, x2 = 0.3): 1214.6 m/s
speed of sound (298.15 K, x2 = 0.4096): 1206.9 m/s
speed of sound (298.15 K, x2 = 0.4998): 1199.2 m/s
speed of sound (298.15 K, x2 = 0.5996): 1189.1 m/s
speed of sound (298.15 K, x2 = 0.6504): 1183.1 m/s
speed of sound (298.15 K, x2 = 0.7501): 1169.2 m/s
speed of sound (298.15 K, x2 = 0.8514): 1152.8 m/s
speed of sound (298.15 K, x2 = 0.92): 1143.6 m/s
speed of sound (298.15 K, x2 = 0.93): 1142.8 m/s
speed of sound (298.15 K, x2 = 0.94): 1142.1 m/s
speed of sound (298.15 K, x2 = 0.9609): 1141.7 m/s
speed of sound (298.15 K, x2 = 0.97): 1142.1 m/s
speed of sound (298.15 K, x2 = 0.98): 1142.2 m/s
speed of sound (303.15 K, x1 = 0.01): 1126.8 m/s
speed of sound (303.15 K, x2 = 0): 1218.3 m/s
speed of sound (303.15 K, x2 = 0.0605): 1216.1 m/s
speed of sound (303.15 K, x2 = 0.101): 1214 m/s
speed of sound (303.15 K, x2 = 0.1991): 1209.5 m/s
speed of sound (303.15 K, x2 = 0.4096): 1195.8 m/s
speed of sound (303.15 K, x2 = 0.4998): 1187.9 m/s
speed of sound (303.15 K, x2 = 0.7501): 1156.6 m/s
speed of sound (303.15 K, x2 = 0.88): 1134.6 m/s
speed of sound (303.15 K, x2 = 0.92): 1129.8 m/s
speed of sound (303.15 K, x2 = 0.93): 1128 m/s
speed of sound (303.15 K, x2 = 0.94): 1127 m/s
speed of sound (303.15 K, x2 = 0.9609): 1126 m/s
speed of sound (303.15 K, x2 = 0.98): 1125.9 m/s
speed of sound (308.15 K, x1 = 0.01): 1110.1 m/s
speed of sound (308.15 K, x2 = 0): 1208.1 m/s
speed of sound (308.15 K, x2 = 0.0605): 1205.9 m/s
speed of sound (308.15 K, x2 = 0.1991): 1199 m/s
speed of sound (308.15 K, x2 = 0.3): 1193.1 m/s
speed of sound (308.15 K, x2 = 0.4096): 1185 m/s
speed of sound (308.15 K, x2 = 0.5996): 1166.4 m/s
speed of sound (308.15 K, x2 = 0.6504): 1159.6 m/s
speed of sound (308.15 K, x2 = 0.7501): 1144.4 m/s
speed of sound (308.15 K, x2 = 0.8514): 1126.2 m/s
speed of sound (308.15 K, x2 = 0.88): 1117 m/s
speed of sound (308.15 K, x2 = 0.92): 1114.5 m/s
speed of sound (308.15 K, x2 = 0.93): 1113.2 m/s
speed of sound (308.15 K, x2 = 0.94): 1112.2 m/s
speed of sound (308.15 K, x2 = 0.9609): 1110.5 m/s
speed of sound (308.15 K, x2 = 0.97): 1110.4 m/s
speed of sound (308.15 K, x2 = 0.98): 1109.9 m/s

CCO + C[N+](C)(C)CCO.O=S(=O)([N-]S(=O)(=O)C(F)(F)F)C(F)(F)F
speed of sound (303.15 K, x1 = 1): 1126.1 m/s
speed of sound (308.15 K, x1 = 1): 1108.9 m/s

CCO + CCCC[N+](C)(CCCC)CCCC.O=S(=O)([N-]S(=O)(=O)C(F)(F)F)C(F)(F)F
speed of sound (293.15 K, x1 = 1): 1160.4 m/s
speed of sound (298.15 K, x1 = 1): 1143.3 m/s
speed of sound (303.15 K, x1 = 1): 1126.1 m/s

CCO + CCCC[N+](C)(C)C.O=S(=O)([N-]S(=O)(=O)C(F)(F)F)C(F)(F)F
speed of sound (293.15 K, x1 = 1): 1160.4 m/s
speed of sound (308.15 K, x1 = 1): 1108.9 m/s

C[N+](C)(C)CCO.O=S(=O)([N-]S(=O)(=O)C(F)(F)F)C(F)(F)F + CCO
speed of sound (293.15 K, x2 = 0.7051): 1221.8 m/s
speed of sound (293.15 K, x2 = 0.9002): 1172.1 m/s
speed of sound (293.15 K, x2 = 0.9601): 1162.4 m/s
speed of sound (298.15 K, x2 = 0.7051): 1207.6 m/s
speed of sound (298.15 K, x2 = 0.801): 1183.2 m/s
speed of sound (298.15 K, x2 = 0.9002): 1156.6 m/s
speed of sound (298.15 K, x2 = 0.9601): 1145.9 m/s
speed of sound (303.15 K, x2 = 0.7051): 1195.3 m/s
speed of sound (303.15 K, x2 = 0.801): 1170 m/s
speed of sound (303.15 K, x2 = 0.9002): 1142.5 m/s
speed of sound (303.15 K, x2 = 0.9601): 1130.3 m/s
speed of sound (308.15 K, x2 = 0.7051): 1183.5 m/s
speed of sound (308.15 K, x2 = 0.801): 1157.2 m/s
speed of sound (308.15 K, x2 = 0.9002): 1128.2 m/s
speed of sound (308.15 K, x2 = 0.9601): 1115 m/s

CCCC[N+](C)(CCCC)CCCC.O=S(=O)([N-]S(=O)(=O)C(F)(F)F)C(F)(F)F + CCO
speed of sound (293.15 K, x2 = 0): 1291.7 m/s
speed of sound (293.15 K, x2 = 0.0711): 1285.8 m/s
speed of sound (293.15 K, x2 = 0.2012): 1277.4 m/s
speed of sound (293.15 K, x2 = 0.3995): 1262.3 m/s
speed of sound (293.15 K, x2 = 0.6009): 1241.4 m/s
speed of sound (293.15 K, x2 = 0.7187): 1224.1 m/s
speed of sound (293.15 K, x2 = 0.8118): 1205.7 m/s
speed of sound (293.15 K, x2 = 0.8605): 1194.3 m/s
speed of sound (293.15 K, x2 = 0.9076): 1181.8 m/s
speed of sound (293.15 K, x2 = 0.93): 1175.6 m/s
speed of sound (293.15 K, x2 = 0.95): 1170.7 m/s
speed of sound (293.15 K, x2 = 0.9702): 1165.7 m/s
speed of sound (298.15 K, x1 = 0.0149): 1146.8 m/s
speed of sound (298.15 K, x2 = 0): 1276 m/s
speed of sound (298.15 K, x2 = 0.0636): 1271.9 m/s
speed of sound (298.15 K, x2 = 0.0711): 1272.2 m/s
speed of sound (298.15 K, x2 = 0.1235): 1268.1 m/s
speed of sound (298.15 K, x2 = 0.2012): 1263.2 m/s
speed of sound (298.15 K, x2 = 0.6009): 1227.8 m/s
speed of sound (298.15 K, x2 = 0.7187): 1210.4 m/s
speed of sound (298.15 K, x2 = 0.8118): 1192 m/s
speed of sound (298.15 K, x2 = 0.9076): 1166.7 m/s
speed of sound (298.15 K, x2 = 0.93): 1160.2 m/s
speed of sound (298.15 K, x2 = 0.96): 1152.3 m/s
speed of sound (303.15 K, x1 = 0.0149): 1130.4 m/s
speed of sound (303.15 K, x2 = 0): 1261.1 m/s
speed of sound (303.15 K, x2 = 0.0636): 1257.5 m/s
speed of sound (303.15 K, x2 = 0.1235): 1254.2 m/s
speed of sound (303.15 K, x2 = 0.2012): 1249.4 m/s
speed of sound (303.15 K, x2 = 0.3995): 1235.2 m/s
speed of sound (303.15 K, x2 = 0.6009): 1214.4 m/s
speed of sound (303.15 K, x2 = 0.7187): 1196.3 m/s
speed of sound (303.15 K, x2 = 0.9076): 1151.6 m/s
speed of sound (303.15 K, x2 = 0.9702): 1133.6 m/s
speed of sound (308.15 K, x1 = 0.0149): 1114.1 m/s
speed of sound (308.15 K, x2 = 0.0636): 1244.1 m/s
speed of sound (308.15 K, x2 = 0.0711): 1244.1 m/s
speed of sound (308.15 K, x2 = 0.2012): 1236.2 m/s
speed of sound (308.15 K, x2 = 0.3995): 1221.9 m/s
speed of sound (308.15 K, x2 = 0.6009): 1200.8 m/s
speed of sound (308.15 K, x2 = 0.7187): 1182.7 m/s
speed of sound (308.15 K, x2 = 0.8118): 1163.3 m/s
speed of sound (308.15 K, x2 = 0.8605): 1151.2 m/s
speed of sound (308.15 K, x2 = 0.9076): 1136.7 m/s
speed of sound (308.15 K, x2 = 0.93): 1129.9 m/s
speed of sound (308.15 K, x2 = 0.95): 1123.5 m/s
speed of sound (308.15 K, x2 = 0.96): 1120.9 m/s
